Measured values: PubChem BioAssay AID1259407 (Chemical Carcinogenesis Research Information System (CCRIS), 2018)
The source made the active and inactive calls. No rule for the calls is given here.

Test system: CCRIS mutagenicity, Ames/micronucleus/aberration tests
Test: CCRIS mutagenicity studies

## Nc1cc([N+](=O)[O-])ccc1C(=O)O
Test System: AMES SALMONELLA TYPHIMURIUM, Strain/Indicator: TA98, Metabolic Activation: NONE, Method: PREINCUBATION
  mutagenic call: active; positive
Test System: AMES SALMONELLA TYPHIMURIUM, Strain/Indicator: TA98, Metabolic Activation: RAT, LIVER, S-9, AROCLOR, Method: PREINCUBATION
  mutagenic call: active; positive
Test System: CHINESE HAMSTER OVARY, Strain/Indicator: CHO-K1-BH4 (HGPRT)/6-THIOGUANINE, Metabolic Activation: NONE
  mutagenic call: inactive; negative
Test System: CHINESE HAMSTER OVARY, Strain/Indicator: CHO-K1-BH4 (HGPRT)/6-THIOGUANINE, Metabolic Activation: S-9
  mutagenic call: inactive; negative

## Cn1cc2ccc([N+](=O)[O-])cc2n1
Test System: AMES SALMONELLA TYPHIMURIUM, Strain/Indicator: TA98, Metabolic Activation: NONE, Method: STANDARD PLATE
  mutagenic call: active; positive

## Nc1nc(N)nc(-c2ccc([N+](=O)[O-])o2)n1
Test System: AMES SALMONELLA TYPHIMURIUM, Strain/Indicator: TA100, Metabolic Activation: RAT, LIVER, S-9, KC500 OR PHENOBARBITAL, Method: LIQUID SUSPENSION
  mutagenic call: active; positive
